The record followed here is PMC3605428, “A Readily Applicable Strategy to Convert Peptides to Peptoid-based Therapeutics” (PLoS ONE, 2013).

The % Inhibition is the relative decrease from the control value, in per cent.

Non-standard residues stand in square brackets, D forms with d. No end group written: not given here. Sar = CNCC(=O)O

The subject of this test is 5-helix bundle (5HB) protein mimicking hRSV fusion protein F. Kind of test: 5HB-based competitive fluorescence polarization (FP) binding assay. Also on record: species or system human respiratory syncytial virus (hRSV). Particulars: 200 µM peptide; inhibition of Fl-C35 tracer (5 nM) binding to 5HB (20 nM); FP buffer 20 mM PBS pH 7.4, 500 mM NaCl, 0.01% Tween-20, 0.05 mg/ml bovine gamma globulin; 1 h + 30 min at room temperature; ex 485/em 530 nm. The procedure: Competitive FP binding assays of the C20 derivatives were carried out as previously described. Briefly, a 5-helix bundle (5HB) protein was designed to mimic a post-fusion structure of fusion protein F (6-helix bundle) and provide a specific binding site for screening potential human respiratory syncytial virus (hRSV) entry inhibitors. Using a 5HB protein as a target protein and a fluorescently labeled 35 amino acid-long peptide (Fl-C35, sequence shown in Table S1) as a tracer, we performed a competitive FP assay to evaluated the binding affinity of each C20 analogue prepared in this study. In each well of a black 96-well plate (Corning Inc. Lowell, MA, USA), 20 nM of the 5HB with increasing concentrations of each peptomer in FP buffer (20 mM PBS at pH 7.4, 500 mM NaCl, 0.01% (v/v) Tween-20, and 0.05 mg/ml bovine gamma globulin) in a final volume of 185 µL was incubated for 1h at room temperature. Fl-C35 was then added to a final concentration of 5 nM followed by 30 min incubation at room temperature. The FP responses were monitored using a Synergy4 plate reader (Biotek, Winooski, VT, USA) with an excitation wavelength of 485 nm and an emission wavelength of 530 nm. The percentage of inhibition (% Inhibition) was calculated from the equation: % inhibition = 100×[1-(mP-mPf)/(mPb-mPf)]. Unbound Fl-C35 (mPf), bound Fl-C35 (mPb) and the bound inhibitor to the 5HB (mP) are used accordingly.
Sample preparation for FP measurements.
“ASQVNEKINQSLAFIRKSDE [Peptide A1, alanine-substituted C20 peptide]”: the “% Inhibition at 200 µM” value is listed as 15.45%.

For “IAQVNEKINQSLAFIRKSDE [Peptide A2, alanine-substituted C20 peptide]”, the “% Inhibition at 200 µM” value was determined as 23.63%.

As for “IPQVNEKINQSLAFIRKSDE [Peptide P2, proline-substituted C20 peptide]”, the “% Inhibition at 200 µM” value is listed as 23.15%.

On to “ISAVNEKINQSLAFIRKSDE [Peptide A3, alanine-substituted C20 peptide]”, for which the “% Inhibition at 200 µM” value came to 27.27%.

On to “ISPVNEKINQSLAFIRKSDE [Peptide P3, proline-substituted C20 peptide]”, for which the “% Inhibition at 200 µM” value is given as 14.81%.

“ISQANEKINQSLAFIRKSDE [Peptide A4, alanine-substituted C20 peptide]”: the “% Inhibition at 200 µM” value is 40.00%.

For the substance “ISQPNEKINQSLAFIRKSDE [Peptide P4, proline-substituted C20 peptide]”, the “% Inhibition at 200 µM” value is reported as 12.96%.

Turning to “ISQVAEKINQSLAFIRKSDE [Peptide A5, alanine-substituted C20 peptide]”, the “% Inhibition at 200 µM” value came out at 25.90%.

Turning to “ISQVNAKINQSLAFIRKSDE [Peptide A6, alanine-substituted C20 peptide]”, the “% Inhibition at 200 µM” value is 89.09%.

Consider “ISQVNEAINQSLAFIRKSDE [Peptide A7, alanine-substituted C20 peptide]”, for which the “% Inhibition at 200 µM” value came out at 100.00%.

Regarding “ISQVNEKANQSLAFIRKSDE [Peptide A8, alanine-substituted C20 peptide]”, the “% Inhibition at 200 µM” value was 13.63%.

With “ISQVNEKIAQSLAFIRKSDE [Peptide A9, alanine-substituted C20 peptide]”, the “% Inhibition at 200 µM” value was determined as 30.90%.

On to “ISQVNEKINASLAFIRKSDE [Peptide A10, alanine-substituted C20 peptide]”, for which the “% Inhibition at 200 µM” value stood at 11.36%.

As for “ISQVNEKINPSLAFIRKSDE [Peptide P10, proline-substituted C20 peptide]”, the “% Inhibition at 200 µM” value is listed as 9.26%.

Take “ISQVNEKINQALAFIRKSDE [Peptide A11, alanine-substituted C20 peptide]”: the “% Inhibition at 200 µM” value is 33.18%.

In the case of “ISQVNEKINQPLAFIRKSDE [Peptide P11, proline-substituted C20 peptide]”, the “% Inhibition at 200 µM” value is recorded as 9.26%.

On to “ISQVNEKINQSAAFIRKSDE [Peptide A12, alanine-substituted C20 peptide]”, for which the “% Inhibition at 200 µM” value is listed as 43.63%.

Regarding “ISQVNEKINQSLAAIRKSDE [Peptide A14, alanine-substituted C20 peptide]”, the “% Inhibition at 200 µM” value is listed as 25.00%.

As to “ISQVNEKINQSLAFARKSDE [Peptide A15, alanine-substituted C20 peptide]”, the “% Inhibition at 200 µM” value is 21.36%.

With “ISQVNEKINQSLAFIAKSDE [Peptide A16, alanine-substituted C20 peptide]”, the “% Inhibition at 200 µM” value amounted to 53.63%.

For the substance “ISQVNEKINQSLAFIPKSDE [Peptide P16, proline-substituted C20 peptide]”, the “% Inhibition at 200 µM” value is 4.63%.

For the substance “ISQVNEKINQSLAFIRASDE [Peptide A17, alanine-substituted C20 peptide]”, the “% Inhibition at 200 µM” value is 100.00%.

Turning to “ISQVNEKINQSLAFIRKADE [Peptide A18, alanine-substituted C20 peptide]”, the “% Inhibition at 200 µM” value stood at 36.81%.

As for “ISQVNEKINQSLAFIRKPDE [Peptide P18, proline-substituted C20 peptide]”, the “% Inhibition at 200 µM” value is on record as 0.93%.

In the case of “ISQVNEKINQSLAFIRKSAE [Peptide A19, alanine-substituted C20 peptide]”, the “% Inhibition at 200 µM” value worked out at 31.81%.

Regarding “ISQVNEKINQSLAFIRKSDA [Peptide A20, alanine-substituted C20 peptide]”, the “% Inhibition at 200 µM” value amounted to 29.09%.

Turning to “ISQVNEKINQSLAFIRKSDE [Peptide A13, alanine scan entry for position 13]”, the “% Inhibition at 200 µM” value is listed as 100.00%.

As for “ISQVNEKINQSLAFIRKSDE [Peptide C20, 20 amino acid-long peptide derived from the 6th helix of hRSV fusion protein F]”, the “% Inhibition at 200 µM” value is 100%.

Regarding “ISQVNEKINQSLAFIRKSDP [Peptide P20, proline-substituted C20 peptide]”, the “% Inhibition at 200 µM” value is recorded as 31.48%.

For the substance “ISQVNEKINQSLAFIRKSD[Sar] [Sar20, sarcosine-substituted C20 peptide]”, the “% Inhibition at 200 µM” value was found to be 100.00%.

Consider “ISQVNEKINQSLAFIRKSPE [Peptide P19, proline-substituted C20 peptide]”, for which the “% Inhibition at 200 µM” value came out at 84.26%.

As to “ISQVNEKINQSLAFIRKS[Sar]E [Sar19, sarcosine-substituted C20 peptide]”, the “% Inhibition at 200 µM” value came out at 59.26%.

In the case of “ISQVNEKINQSLAFIRK[Sar]DE [Sar18, sarcosine-substituted C20 peptide]”, the “% Inhibition at 200 µM” value is 21.30%.

“ISQVNEKINQSLAFIRPSDE [Peptide P17, proline-substituted C20 peptide]”: the “% Inhibition at 200 µM” value turned out to be 6.48%.

As for “ISQVNEKINQSLAFIR[Sar]SDE [Sar17, sarcosine-substituted C20 peptide]”, the “% Inhibition at 200 µM” value came out at 84.26%.

As for “ISQVNEKINQSLAFI[Sar]KSDE [Sar16, sarcosine-substituted C20 peptide]”, the “% Inhibition at 200 µM” value came to 0.00%.

Regarding “ISQVNEKINQSLAFPRKSDE [Peptide P15, proline-substituted C20 peptide]”, the “% Inhibition at 200 µM” value amounted to 4.63%.

As to “ISQVNEKINQSLAF[Sar]RKSDE [Sar15, sarcosine-substituted C20 peptide]”, the “% Inhibition at 200 µM” value is recorded as 30.56%.

Regarding “ISQVNEKINQSLAPIRKSDE [Peptide P14, proline-substituted C20 peptide]”, the “% Inhibition at 200 µM” value is listed as 13.89%.

Consider “ISQVNEKINQSLA[Sar]IRKSDE [Sar14, sarcosine-substituted C20 peptide]”, for which the “% Inhibition at 200 µM” value is reported as 4.63%.

Take “ISQVNEKINQSLPFIRKSDE [Peptide P13, proline-substituted C20 peptide]”: the “% Inhibition at 200 µM” value is reported as 10.19%.

In the case of “ISQVNEKINQSL[Sar]FIRKSDE [Sar13, sarcosine-substituted C20 peptide]”, the “% Inhibition at 200 µM” value was 4.63%.

“ISQVNEKINQSPAFIRKSDE [Peptide P12, proline-substituted C20 peptide]”: the “% Inhibition at 200 µM” value came to 22.22%.

On to “ISQVNEKINQS[Sar]AFIRKSDE [Sar12, sarcosine-substituted C20 peptide]”, for which the “% Inhibition at 200 µM” value was determined as 7.41%.

On to “ISQVNEKINQ[Sar]LAFIRKSDE [Sar11, sarcosine-substituted C20 peptide]”, for which the “% Inhibition at 200 µM” value worked out at 13.89%.

For the substance “ISQVNEKIN[Sar]SLAFIRKSDE [Sar10, sarcosine-substituted C20 peptide]”, the “% Inhibition at 200 µM” value turned out to be 21.30%.

Regarding “ISQVNEKIPQSLAFIRKSDE [Peptide P9, proline-substituted C20 peptide]”, the “% Inhibition at 200 µM” value came out at 33.33%.

Turning to “ISQVNEKI[Sar]QSLAFIRKSDE [Sar9, sarcosine-substituted C20 peptide]”, the “% Inhibition at 200 µM” value amounted to 13.89%.

Turning to “ISQVNEKPNQSLAFIRKSDE [Peptide P8, proline-substituted C20 peptide]”, the “% Inhibition at 200 µM” value worked out at 11.11%.

As for “ISQVNEK[Sar]NQSLAFIRKSDE [Sar8, sarcosine-substituted C20 peptide]”, the “% Inhibition at 200 µM” value stood at 26.85%.

In the case of “ISQVNE[Sar]INQSLAFIRKSDE [Sar7, sarcosine-substituted C20 peptide]”, the “% Inhibition at 200 µM” value is recorded as 100.00%.

Turning to “ISQVNPKINQSLAFIRKSDE [Peptide P6, proline-substituted C20 peptide]”, the “% Inhibition at 200 µM” value stood at 26.85%.

For “ISQVN[Sar]KINQSLAFIRKSDE [Sar6, sarcosine-substituted C20 peptide]”, the “% Inhibition at 200 µM” value was determined as 108.33%.

As for “ISQVPEKINQSLAFIRKSDE [Peptide P5, proline-substituted C20 peptide]”, the “% Inhibition at 200 µM” value was 34.26%.

Regarding “ISQV[Sar]EKINQSLAFIRKSDE [Sar5, sarcosine-substituted C20 peptide]”, the “% Inhibition at 200 µM” value worked out at 23.15%.

Take “ISQ[Sar]NEKINQSLAFIRKSDE [Sar4, sarcosine-substituted C20 peptide]”: the “% Inhibition at 200 µM” value was found to be 1.85%.

“IS[Sar]VNEKINQSLAFIRKSDE [Sar3, sarcosine-substituted C20 peptide]”: the “% Inhibition at 200 µM” value came out at 11.11%.

For the substance “I[Sar]QVNEKINQSLAFIRKSDE [Sar2, sarcosine-substituted C20 peptide]”, the “% Inhibition at 200 µM” value stood at 22.22%.

Turning to “PSQVNEKINQSLAFIRKSDE [Peptide P1, proline-substituted C20 peptide]”, the “% Inhibition at 200 µM” value is reported as 26.85%.
